The source of these data is ChEMBL document CHEMBL1146436, “Bioactive alkaloids from Illigera luzonensis” (1997).

The source made the active and inactive calls. The rule behind the calls is not given here.

Experiment [1] in a line: Antiplatelet activity against collagen-induced rabbit platelet aggregation assessed as platelet aggregation at 100 ug/ml preincubated for 3 mins by turbidimetric method relative to control. It is filed as functional, Oryctolagus cuniculus.
Experiment [2] can be described thus: Antiplatelet activity against arachidonic acid-induced rabbit platelet aggregation assessed as platelet aggregation at 10 ug/ml preincubated for 3 mins by turbidimetric method relative to control. It is filed as functional, Oryctolagus cuniculus.
A short description of experiment [3]: Antiplatelet activity against ADP-induced rabbit platelet aggregation assessed as platelet aggregation at 100 ug/ml preincubated for 3 mins by turbidimetric method relative to control. Format: functional, Oryctolagus cuniculus.
Experiment [4] in a line: Antiplatelet activity against arachidonic acid-induced rabbit platelet aggregation assessed as platelet aggregation at 50 ug/ml preincubated for 3 mins by turbidimetric method relative to control. Format: functional, Oryctolagus cuniculus.
A short description of experiment [5]: Antiplatelet activity against arachidonic acid-induced rabbit platelet aggregation assessed as platelet aggregation at 100 ug/ml preincubated for 3 mins by turbidimetric method relative to control. It is filed as functional, Oryctolagus cuniculus.
Experiment [6] can be described thus: Antiplatelet activity against arachidonic acid-induced rabbit platelet aggregation assessed as platelet aggregation at 20 ug/ml preincubated for 3 mins by turbidimetric method relative to control. It is filed as functional, Oryctolagus cuniculus.
Experiment [7] can be described thus: Antiplatelet activity against arachidonic acid-induced rabbit platelet aggregation assessed as platelet aggregation at 5 ug/ml preincubated for 3 mins by turbidimetric method relative to control. Format: functional, Oryctolagus cuniculus.
The nature of experiment [8]: Antiplatelet activity against PAF-induced rabbit platelet aggregation assessed as platelet aggregation at 100 ug/ml preincubated for 3 mins by turbidimetric method relative to control. Format: functional, Oryctolagus cuniculus.
The subject of experiment [9] is Aorta. In words: Vasorelaxant activity against 3 uM norepinephrine -induced phasic contractions in rat thoracic aorta assessed as muscle contractions at 100 ug/mL pretreated for 15 mins before norepinephrine administration relative to control. Format: functional. On the set-up: scale not given: the % may be the effect or the level left.
In experiment [10] the test system is Aorta. Briefly: Vasorelaxant activity against 80 mM potassium-induced contractions in rat thoracic aorta assessed as muscle contractions at 100 ug/mL pretreated for 15 mins before potassium administration relative to control. Format: functional. On the set-up: scale not given: the % may be the effect or the level left.
In experiment [11] the test system is Aorta. Briefly: Effect on resting tension in rat thoracic aorta at 100 ug/mL pretreated for 15 mins. It is filed as functional, tissue-based.
Experiment [12] deals with Aorta. In words: Vasorelaxant activity against 3 uM norepinephrine -induced tonic contractions in rat thoracic aorta assessed as muscle contractions at 100 ug/mL pretreated for 15 mins before norepinephrine administration relative to control. Format: functional. Further details: scale not given: the % may be the effect or the level left.
Experiment [13] in a line: Antiplatelet activity against ADP-induced rabbit platelet aggregation assessed as platelet aggregation at 25 ug/ml preincubated for 3 mins by turbidimetric method relative to control. Format: functional, Oryctolagus cuniculus.
A short description of experiment [14]: Antiplatelet activity against collagen-induced rabbit platelet aggregation assessed as platelet aggregation at 25 ug/ml preincubated for 3 mins by turbidimetric method relative to control. It is filed as functional, Oryctolagus cuniculus.
Experiment [15] can be described thus: Antiplatelet activity against arachidonic acid-induced rabbit platelet aggregation assessed as platelet aggregation at 25 ug/ml preincubated for 3 mins by turbidimetric method relative to control. It is filed as functional, Oryctolagus cuniculus.
Experiment [16] can be described thus: Antiplatelet activity against PAF-induced rabbit platelet aggregation assessed as platelet aggregation at 25 ug/ml preincubated for 3 mins by turbidimetric method relative to control. It is filed as functional, Oryctolagus cuniculus.
Experiment [17] can be described thus: Antiplatelet activity against arachidonic acid-induced rabbit platelet aggregation assessed as platelet aggregation at 1 ug/ml preincubated for 3 mins by turbidimetric method relative to control. It is filed as functional, Oryctolagus cuniculus.
A short description of experiment [18]: Antiplatelet activity against arachidonic acid-induced rabbit platelet aggregation assessed as platelet aggregation at 2 ug/ml preincubated for 3 mins by turbidimetric method relative to control. Format: functional, Oryctolagus cuniculus.
In experiment [19] the test system is Aorta. In words: Vasorelaxant activity against 80 mM potassium-induced contractions in rat thoracic aorta assessed as muscle contractions at 1 uM pretreated for 15 mins before potassium administration relative to control. It is filed as functional. On the set-up: scale not given: the % may be the effect or the level left.
Experiment [20] deals with Aorta. Briefly: Vasorelaxant activity against 3 uM norepinephrine -induced phasic contractions in rat thoracic aorta assessed as muscle contractions at 1 uM pretreated for 15 mins before norepinephrine administration relative to control. Format: functional. Further details: scale not given: the % may be the effect or the level left.
Experiment [21] relates to Aorta. Briefly: Vasorelaxant activity against 3 uM norepinephrine -induced tonic contractions in rat thoracic aorta assessed as muscle contractions at 1 uM pretreated for 15 mins before norepinephrine administration relative to control. Format: functional. Further details: scale not given: the % may be the effect or the level left.

As to `COc1ccc2c(c1OC)-c1c3c(cc4c1[C@H](C2)N(C)CC4)OCO3`, the Activity in [1] turned out to be 0%; in [2], 72.5%; in experiment [3], 47.9%; in [4], 0%; in experiment [5] it was 0%; in [6], 50.4%. Further, the Activity in experiment [7] is 83.4%; in [8], 75.1%.

With `COc1ccc2c(c1O)-c1c3c(cc4c1[C@H](C2)N(C)CC4)OCO3` [(S)-BULBOCAPNINE], the Activity in experiment [1] is reported as 83.2%; in experiment [3], 86.8%; in [5] it was 89.3%; in experiment [8], 86.6%.

Turning to `COc1cc2c(cc1O)C[C@@H]1NCCc3cc4c(c-2c31)OCO4` [ACTINODAPHNINE], the Activity amounted to 0% in [1]; 40.6% in the experiment on Aorta [9]; 60.5% in experiment [2]; 0% in experiment [3]; 41.9% in the experiment with Aorta [10]; 0% in [4]. The Activity is 0% in experiment [5]; 42.7% in [6]; 80.3% in experiment [7]; 0% in [8]; 15.5% with Aorta [12]. In addition, the outcome in the experiment on Aorta [11] was inactive.

For the compound `CC(=O)Oc1ccccc1C(=O)O` [ASPIRIN], the Activity in [13] is recorded as 77.9%; in experiment [14], 87.8%; in experiment [5] it was 0%; in [15], 0%; in experiment [16], 90.4%.

Turning to `COc1cc2c(cc1O)C[C@H]1c3c(cc4c(c3-2)OCO4)CCN1C` [CASSYTHICINE], the Activity turned out to be 0% in experiment [1]; 82.5% in experiment [17]; 225% with Aorta [9]; 16.2% in experiment [2]; 0% in experiment [3]; 69.1% in experiment [18]. The Activity is on record as 112.9% in the experiment with Aorta [10]; 0% in experiment [5]; 0% in [6]; 51.4% in experiment [7]; 68.1% in experiment [8]; 98.9% in the experiment with Aorta [12].

In the case of `COc1cc2c(cc1OC)-c1c3c(cc4c1[C@H](C2)N(C)CC4)OCO3` [DICENTRINE], the Activity is recorded as 3.2% in experiment [1]; 55.1% in experiment [2]; 4% in experiment [3]; 83.4% in experiment [18]; 0% in experiment [5]; 0% in experiment [6]. Moreover, the results for the Activity in experiment [7] and in experiment [8] were 77.7% and 7.6%, respectively.

For the compound `COc1cc2c(cc1OC)-c1c3c(cc4ccnc(c14)C2=O)OCO3` [DICENTRINONE], the Activity in the experiment on Aorta [9] turned out to be 89.7%; in the experiment on Aorta [10], 111.1%; in the experiment on Aorta [12], 64%. Further, in the experiment with Aorta [11], the outcome was inactive.

`COc1c(O)ccc2c1-c1c(OC)c(O)cc3c1[C@H](C2)NCC3` [HERNOVINE]: the Activity in experiment [1] is 0%; in experiment [3] it was 87.2%; in [5] it was 47%; in experiment [8], 64.1%.

As to `COc1ccc2c(c1O)-c1c3c(cc4c1[C@H](C2)NCC4)OCO3` [LAUNOBINE], the Activity in experiment [1] is listed as 29.9%; in [3], 84.2%; in experiment [5], 11.8%; in experiment [8], 70.7%.

For `O=C1c2ccccc2-c2c3c(cc4ccnc1c24)OCO3` [LIRIODENINE], the Activity is given as 5.4% in [13], 5.3% in [14], 40.5% in experiment [15] and 84.1% in [16].

For the compound `COC(=O)C1=C(C)NC(C)=C(C(=O)OC)C1c1ccccc1[N+](=O)[O-]` [NIFEDIPINE], the Activity with Aorta [19] came out at 0%.

Regarding `COc1cc2nc(N3CCN(C(=O)c4ccco4)CC3)nc(N)c2cc1OC` [PRAZOSIN], the Activity with Aorta [20] and in the experiment on Aorta [21] was 0% in each case.
